From US10375956B2, “Herbicidally active 2-(substituted-phenyl)-cyclopentane-1,3-dione compounds and derivatives thereof” (Syngenta Limited, priority 2013, dated 2019)

Tests used:
Assay type in all cases: in vivo
[1] = tested on: Digitaria sanguinalis (DIGSA); assay: Test 2 glasshouse assay (IF50 formulation, X-77), pre-emergence herbicidal activity; details: 480 h, 250 g/ha, 20DAA, read-out: Percentage phytotoxicity DIGSA
Protocol: (§1) Seeds of a variety of monocotyledonous and dicotyledonous test plants are sown in standard soil in pots. The plants are cultivated for one day (for pre-emergence) or for about 12 days (for post-emergence) under controlled conditions in a glasshouse (warm climate species at 24/18° C., cool climate species at 20/16° C., both at day/night; 16 hours light; 65% humidity).
(§2) An “instant formulation”, known as the “IF50”, containing 50 g/liter (i.e. 5% w/v) of the “technical” (i.e. unformulated) active ingredient is prepared by dissolving the active ingredient in a mixture of organic solvents and emulsifier, details of which are provided in the Table below. This IF50 is then mixed with a small, variable amount of acetone to aid dissolution, before addition of a 0.2% v/v aqueous solution of the adjuvant X-77 (which is a mixture of alkyl aryl polyoxyethylene glycols and free fatty acids in isopropanol, CAS Registry number 11097-66-8), as the aqueous diluent, to form an aqueous spray solution which contains a predetermined concentration of the active ingredient (which varies depending on the application rate of the active ingredient to the plants) and 0.2% v/v of the adjuvant X-77. This aqueous spray solution is then sprayed onto the plants, after one day's cultivation (for pre-emergence), or after about 12 days' cultivation (range=10-13 days) (for post-emergence).
(§3) The test plants are then grown on, in a glasshouse (greenhouse) under controlled conditions (warm climate species at 24/18° C., cool climate species at 20/16° C., both at day/night; 16 hours light; 65% humidity) and are watered twice daily. 15 days after application of the test herbicide (15DAA) (for post-emergence), and 20 days after application of the test herbicide (20DAA) (for pre-emergence), the test plants are evaluated visually, and an assessed percentage phytotoxicity score is given for each herbicidal application on each plant species (with 100%=total damage to plant; 0%=no damage to plant).
(§4) Warm climate (“warm season”) grassy monocotyledonous weeds: Setaria faberi (SETFA), Panicum miliaceum (PANMI), Sorghum vulgare Pers. (SORVU) (or Sorghum bicolor (L) Moench ssp. Bicolor), Digitaria sanguinalis (DIGSA), Echinochloa crus-galli (ECHCG), and Brachiaria plantaginea (BRAPL).

[2] = tested on: Echinochloa crus-galli (ECHCG); assay: as above; details: 480 h, 250 g/ha, 20DAA, read-out: Percentage phytotoxicity ECHCG
Protocol: as §1, §2, §3, §4

[3] = tested on: Sorghum vulgare Pers. (SORVU); assay: as above; details: Sorghum bicolor, 480 h, 250 g/ha, 20DAA, read-out: Percentage phytotoxicity SORVU
Protocol: as §1, §2, §3, §4

[4] = tested on: Panicum miliaceum (PANMI); assay: as above; details: 480 h, 250 g/ha, 20DAA, read-out: Percentage phytotoxicity PANMI
Protocol: as §1, §2, §3, §4

Setaria faberi (SETFA) [5] = assay: as above; details: 480 h, 250 g/ha, 20DAA, read-out: Percentage phytotoxicity SETFA
Protocol: as §1, §2, §3, §4

[6] = tested on: Brachiaria plantaginea (BRAPL); assay: as above; details: Urochloa plantaginea, 480 h, 250 g/ha, 20DAA, read-out: Percentage phytotoxicity BRAPL
Protocol: as §1, §2, §3, §4

[7] = tested on: Echinochloa crus-galli (ECHCG); assay: Test 2 glasshouse assay (IF50 formulation, X-77), post-emergence herbicidal activity; details: 360 h, 15 DAA, visual score, read-out: Post-emergence herbicidal activity (percentage phytotoxicity) ECHCG; for pest or weed control at 30 g/ha: application rate 30 g/ha; for pest or weed control at 125 g/ha: application rate 125 g/ha; for pest or weed control at 250 g/ha: application rate 250 g/ha
Protocol: as §1, §2, §3, §4

[8] = tested on: Sorghum vulgare Pers. (SORVU); assay: as above; details: Sorghum bicolor, 360 h, 15 DAA, visual score, read-out: Post-emergence herbicidal activity (percentage phytotoxicity) SORVU; for pest or weed control at 30 g/ha: application rate 30 g/ha; for pest or weed control at 125 g/ha: application rate 125 g/ha; for pest or weed control at 250 g/ha: application rate 250 g/ha
Protocol: as §1, §2, §3, §4

[9] = tested on: Panicum miliaceum (PANMI); assay: as above; details: 360 h, 15 DAA, visual score, read-out: Post-emergence herbicidal activity (percentage phytotoxicity) PANMI; for pest or weed control at 30 g/ha: application rate 30 g/ha; for pest or weed control at 125 g/ha: application rate 125 g/ha; for pest or weed control at 250 g/ha: application rate 250 g/ha
Protocol: as §1, §2, §3, §4

[10] = tested on: Brachiaria plantaginea (BRAPL); assay: as above; details: Urochloa plantaginea, 360 h, 15 DAA, visual score, read-out: Post-emergence herbicidal activity (percentage phytotoxicity) BRAPL; for pest or weed control at 30 g/ha: application rate 30 g/ha; for pest or weed control at 125 g/ha: application rate 125 g/ha; for pest or weed control at 250 g/ha: application rate 250 g/ha
Protocol: as §1, §2, §3, §4

[11] = tested on: Echinochloa crus-galli (ECHCG); assay: Test 1 glasshouse assay, pre-emergence herbicidal activity; details: 312 h, visual evaluation after 13 days, read-out: Percentage phytotoxicity ECHCG
Outline: (§5)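 Pre-emergence: test species sown in soil and sprayed one day after sowing with active ingredient in acetone/water (50:50) with 0.5% Tween 20. Grown at 24/16 °C day/night, 14 h light, 65% humidity; visual phytotoxicity scored after 13 days (0% no damage, 100% total damage).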

[12] = tested on: Amaranthus retroflexus (AMARE); assay: as above; details: 312 h, visual evaluation after 13 days, read-out: Percentage phytotoxicity AMARE
Outline: as §5

Setaria faberi (SETFA) [13] = assay: as above; details: 312 h, visual evaluation after 13 days, read-out: Percentage phytotoxicity SETFA
Outline: as §5

[14] = tested on: Alopecurus myosuroides (ALOMY); assay: as above; details: 312 h, visual evaluation after 13 days, read-out: Percentage phytotoxicity ALOMY
Outline: as §5

[15] = tested on: Zea mays (ZEAMX, corn/maize); assay: as above; details: 312 h, visual evaluation after 13 days, read-out: Percentage phytotoxicity ZEAMX
Outline: as §5

[16] = tested on: Abutilon theophrasti (ABUTH); assay: as above; details: 312 h, visual evaluation after 13 days, read-out: Percentage phytotoxicity ABUTH
Outline: as §5

Structure (SMILES) | pest or weed control at 250 g/ha [1] | pest or weed control at 250 g/ha [2] | pest or weed control at 250 g/ha [3] | pest or weed control at 250 g/ha [4] | pest or weed control at 250 g/ha (Setaria faberi (SETFA) [5]) | pest or weed control at 250 g/ha [6] | pest or weed control at 30 g/ha [7] | pest or weed control at 30 g/ha [8] | pest or weed control at 30 g/ha [9] | pest or weed control at 30 g/ha [10] | pest or weed control at 250 g/ha [11] | pest or weed control at 250 g/ha [12] | pest or weed control at 250 g/ha (Setaria faberi (SETFA) [13]) | pest or weed control at 250 g/ha [14] | pest or weed control at 250 g/ha [15] | pest or weed control at 250 g/ha [16] | pest or weed control at 250 g/ha [7] | pest or weed control at 250 g/ha [8] | pest or weed control at 250 g/ha [9] | pest or weed control at 250 g/ha [10] | other results
C#CCC1CC(=O)C(c2c(Cl)cc(-c3ccc(F)c(F)c3)cc2OC)C1=O (stereo not drawn) [Compound A13] | 100% | 100% | 100% | 100% | 100% | 100% | 100% | 100% | 100% | 90% | 100% | 100% | 100% | 90% | 100% | 80% |  |  |  |  | pest or weed control at 125 g/ha [7]: 100%; pest or weed control at 125 g/ha [8]: 100%; pest or weed control at 125 g/ha [9]: 100%; pest or weed control at 125 g/ha [10]: 100%
C#CCC1CC(=O)C(c2c(C)cc(-c3ccc(Cl)cn3)cc2C)C1=O (stereo not drawn) [Compound A2] | 70% | 80% | 80% | 100% | 90% | 80% | 100% | 100% | 100% | 100% | 100% | 90% | 100% | 90% | 100% | 50% | 100% | 100% | 100% | 100% | 
C#CCC1CC(=O)C(c2c(C)cc(-c3ncc(Cl)cc3F)cc2C)C1=O (stereo not drawn) [Compound A3] | 90% | 80% | 80% | 80% | 80% | 90% | 100% | 100% | 100% | 80% | 100% | 60% | 100% | 100% | 100% | 20% | 100% | 100% | 100% | 100% | 
C#CCC1CC(=O)C(c2c(Cl)cc(-c3ccc(F)cc3)cc2OC)C1=O (stereo not drawn) [Compound A7] | 100% | 90% | 90% | 100% | 90% | 90% | 100% | 100% | 100% | 100% | 100% | 70% | 100% | 90% | 100% | 0% | 100% | 100% | 100% | 100% | 
C#CCC1CC(=O)C(c2c(Cl)cc(-c3ccc(F)cc3F)cc2OC)C1=O (stereo not drawn) [Compound A12] | 100% | 80% | 90% | 100% | 100% | 100% | 70% | 90% | 70% | 70% | 100% | 100% | 100% | 90% | 100% | 80% |  |  |  |  | pest or weed control at 125 g/ha [7]: 100%; pest or weed control at 125 g/ha [8]: 100%; pest or weed control at 125 g/ha [9]: 100%; pest or weed control at 125 g/ha [10]: 100%
C#CCC1CC(=O)C(c2c(Cl)cc(-c3ccc(Cl)cc3)cc2OC)C1=O (stereo not drawn) [Compound A11, 2-[2-chloro-4-(4-chlorophenyl)-6-methoxyphenyl]-4-prop-2-ynylcyclopentane-1,3-dione] | 90% | 70% | 80% | 60% | 90% | 100% | 100% | 100% | 100% | 100% | 100% | 80% | 100% | 100% | 100% | 40% | 100% | 100% | 100% | 100% | 
